Assay [1] concerns L1210. The assay is described as follows: Inhibition of RNA synthesis in mouse L1210 cells compound preincubated for 3 hrs followed by [3H]uridine addition measured after 1 hr by scintillation counting. Type of assay: functional.
The test system of assay [2] is P388. The assay can be described thus: Antitumor activity against mouse P388 cells allografted in mouse assessed as increase in survival time at 5.3 mg/kg, ip qd administered starting from day 1 to day 9 post challenge relative to control. It is filed as functional. The note with it: route intraperitoneal.
The subject of assay [3] is P388. The assay is described as follows: Antitumor activity against mouse P388 cells allografted in mouse assessed as increase in survival time at 8 mg/kg, ip qd administered starting from day 1 to day 9 post challenge relative to control. Type of assay: functional. The note with it: route intraperitoneal.
Assay [4] deals with P388. The assay can be described thus: Antitumor activity against mouse P388 cells allografted in mouse assessed as increase in survival time at 1.5 mg/kg, ip qd administered starting from day 1 to day 9 post challenge relative to control. As to conditions: route intraperitoneal. Type of assay: functional.
Assay [5] concerns P388. The assay can be described thus: Antitumor activity against mouse P388 cells allografted in mouse assessed as increase in survival time at 3.5 mg/kg, ip qd administered starting from day 1 to day 9 post challenge relative to control. It is filed as functional. The note with it: route intraperitoneal.
Assay [6] relates to L1210. The assay is described as follows: Inhibition of DNA synthesis in mouse L1210 cells compound preincubated for 3 hrs followed by [3H]thymidine addition measured after 1 hr by scintillation counting. It is filed as functional.
In assay [7] the test system is P388. The assay can be described thus: Antitumor activity against mouse P388 cells allografted in mouse assessed as increase in survival time at 4 mg/kg, ip qd administered starting from day 1 to day 9 post challenge relative to control. Type of assay: functional. The note with it: route intraperitoneal.
For the next assay, the system named is Calf thymus DNA. The assay can be described thus: Binding affinity to calf thymus DNA by spectral analysis. Type of assay: nucleic-acid assay. The note with it: Bos taurus.
Assay [8] deals with P388. The assay is described as follows: Antitumor activity against mouse P388 cells allografted in mouse assessed as increase in survival time at 12 mg/kg, ip qd administered starting from day 1 to day 9 post challenge relative to control. Type of assay: functional. As to conditions: route intraperitoneal.
For assay [9], the system named is P388. The assay is described as follows: Antitumor activity against mouse P388 cells allografted in mouse assessed as increase in survival time at 1 mg/kg, ip qd administered starting on day 5,9 and 13 post challenge relative to control. It is filed as functional. The note with it: route intraperitoneal.
The test system of assay [10] is P388. The assay is described as follows: Antitumor activity against mouse P388 cells allografted in mouse assessed as increase in survival time at 0.39 mg/kg, ip qd administered starting from day 1 to day 9 post challenge relative to control. Type of assay: functional. As to conditions: route intraperitoneal.
Assay [11] relates to P388. The assay can be described thus: Antitumor activity against mouse P388 cells allografted in mouse assessed as increase in survival time at 1.56 mg/kg, ip qd administered starting from day 1 to day 9 post challenge relative to control. It is filed as functional. As to conditions: route intraperitoneal.
Assay [12] concerns P388. The assay is described as follows: Antitumor activity against mouse P388 cells allografted in mouse assessed as increase in survival time at 0.20 mg/kg, ip qd administered starting from day 1 to day 9 post challenge relative to control. The note with it: dose 0.2 mg/kg; route intraperitoneal. It is filed as functional.
Assay [13] deals with P388. The assay can be described thus: Antitumor activity against mouse P388 cells allografted in mouse assessed as increase in survival time at 0.78 mg/kg, ip qd administered starting from day 1 to day 9 post challenge relative to control. Type of assay: functional. The note with it: route intraperitoneal.
The subject of assay [14] is P388. The assay can be described thus: Antitumor activity against mouse P388 cells allografted in mouse assessed as increase in survival time at 8 mg/kg, ip qd administered starting on day 5,9 and 13 post challenge relative to control. Type of assay: functional. The note with it: route intraperitoneal.
The test system of assay [15] is P388. The assay can be described thus: Antitumor activity against mouse P388 cells allografted in mouse assessed as increase in survival time at 16 mg/kg, ip qd administered starting on day 5,9 and 13 post challenge relative to control. As to conditions: route intraperitoneal. Type of assay: functional.
For assay [16], the system named is P388. The assay is described as follows: Antitumor activity against mouse P388 cells allografted in mouse assessed as increase in survival time at 2 mg/kg, ip qd administered starting on day 5,9 and 13 post challenge relative to control. Type of assay: functional. As to conditions: route intraperitoneal.
For assay [17], the system named is P388. The assay is described as follows: Antitumor activity against mouse P388 cells allografted in mouse assessed as increase in survival time at 4 mg/kg, ip qd administered starting on day 5,9 and 13 post challenge relative to control. It is filed as functional. The note with it: route intraperitoneal.
Assay [18] relates to P388. The assay is described as follows: Antitumor activity against mouse P388 cells allografted in mouse assessed as increase in survival time at 6.25 mg/kg, ip qd administered starting from day 1 to day 9 post challenge relative to control. Type of assay: functional. The note with it: route intraperitoneal.
The test system of assay [19] is P388. The assay can be described thus: Antitumor activity against mouse P388 cells allografted in mouse assessed as increase in survival time at 3.13 mg/kg, ip qd administered starting from day 1 to day 9 post challenge relative to control. Type of assay: functional. As to conditions: route intraperitoneal.

What is called IC50 is the concentration needed to halve the response being measured. High values mean weaker potency, low ones greater potency. A word on the T/C: it is the result in the treated group divided by that in the control group, in per cent. Usually ΔTm stands for the shift of the melting midpoint relative to a reference. For the compound `CC[C@@]1(O)C[C@H](O[C@H]2C[C@H](N)[C@H](O)[C@H](C)O2)c2c(O)c3c(c(O)c2[C@H]1C(=O)OC)C(=O)c1cccc(O)c1C3=O.Cl`, the IC50 in the assay on L1210 [1] was determined as 2.6 µM; in the assay with L1210 [6], 5.6 µM. Further, the T/C in the assay with P388 [2] is listed as 139%; with P388 [3] it was 140%; with P388 [4], 127%; in the assay with P388 [5] it was 130%; in the assay on P388 [7], 132%; with P388 [8] it was 141%. In the assay on Calf thymus DNA, the ΔTm was 7.6 °C.
On to `COc1cccc2c1C(=O)c1c(O)c3c(c(O)c1C2=O)C[C@@](O)(C(=O)CO)C[C@@H]3O[C@H]1C[C@H](N)[C@H](O)[C@H](C)O1` [DOXORUBICIN], for which the T/C in the assay on P388 [9] was found to be 133%; with P388 [10], 174%; in the assay with P388 [11], 176%; in the assay with P388 [12] it was 160%; in the assay on P388 [13] it was 197%; with P388 [14] it was 157%. The T/C in the assay with P388 [15] is on record as 130%; in the assay with P388 [16] it was 133%; in the assay with P388 [17], 142%. Moreover, the IC50 in the assay with L1210 [1] was determined as 0.58 µM; in the assay on L1210 [6], 1.5 µM. Further, the ΔTm with Calf thymus DNA was found to be 13.4 °C.
For the compound `COc1cccc2c1C(=O)c1c(O)c3c(c(O)c1C2=O)C[C@@](O)(C(C)=O)C[C@@H]3O[C@H]1C[C@H](N)[C@H](O)[C@H](C)O1` [DAUNORUBICIN], the IC50 with L1210 [1] stood at 0.33 µM; in the assay on L1210 [6], 0.66 µM. Moreover, the T/C stood at 153% with P388 [10]; 148% in the assay with P388 [11]; 144% with P388 [12]; 167% in the assay with P388 [13]; 134% in the assay on P388 [14]; 127% in the assay with P388 [15]. Further, the T/C in the assay on P388 [17] is 131%.
In the case of `COc1cccc2c1C(=O)c1c(O)c3c(c(O)c1C2=O)C[C@@](O)(CCO)C[C@@H]3O[C@H]1C[C@H](N)[C@H](O)[C@H](C)O1` [13-DEOXYDOXORUBICIN], the IC50 in the assay with L1210 [1] amounted to 1.1 µM; with L1210 [6], 1.8 µM. The T/C is recorded as 140% in the assay with P388 [10]; 153% in the assay on P388 [18]; 156% with P388 [11]; 161% in the assay with P388 [13]; 164% in the assay with P388 [19]. Also, in the assay with Calf thymus DNA, the ΔTm is 6.15 °C.
For `CC[C@]1(O)Cc2c(O)c3c(c(O)c2[C@@H](O[C@H]2C[C@H](N)[C@H](O)[C@H](C)O2)C1)C(=O)c1c(OC)cccc1C3=O`, the values for the IC50 in the assay with L1210 [1] and with L1210 [6] were 0.84 µM and 1.3 µM, respectively. The T/C in the assay with P388 [10] is 140%; in the assay with P388 [11], 160%; in the assay on P388 [13], 134%; in the assay on P388 [19], 160%. The shift in melting temperature (ΔTm) in the assay on Calf thymus DNA worked out at 50 °C.

(Values after ChEMBL document CHEMBL3243937, “Adriamycin analogues. 2. Synthesis of 13-deoxyanthracyclines” (1978).)
